{"source": "patent US8420657B2", "about": "(Novartis AG, priority 2008, dated 2013)"}
{"target": "T1, GST-JAK2(808-1132) (Homo sapiens, UniProt O60674)", "T1 construct": "GST-JAK2(808-1132); purchased Invitrogen (Carlsbad, USA) #4288", "T1 sequence (O60674 808-1132)": "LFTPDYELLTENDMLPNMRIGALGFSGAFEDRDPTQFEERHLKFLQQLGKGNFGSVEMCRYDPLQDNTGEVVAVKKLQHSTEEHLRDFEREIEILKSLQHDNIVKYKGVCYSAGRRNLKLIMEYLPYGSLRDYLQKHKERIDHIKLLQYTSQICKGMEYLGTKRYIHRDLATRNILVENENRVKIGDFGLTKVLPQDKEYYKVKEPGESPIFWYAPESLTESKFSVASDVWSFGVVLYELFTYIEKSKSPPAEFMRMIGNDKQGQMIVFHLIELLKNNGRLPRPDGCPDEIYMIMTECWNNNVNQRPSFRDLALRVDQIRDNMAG", "assay": "JAK2 kinase assay (Caliper mobility shift, LabChip 3000)", "type": "biochemical", "in_short": "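Recombinant GST-JAK2(808-1132) kinase domain with FITC-labelled JAK3tide peptide substrate and ATP; 60 min at 30 °C, EDTA stop. Substrate/product ratio read by microfluidic mobility shift; compounds at 8 final concentrations, 10 to 0.003 μM.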", "units": {"IC50": "nM"}}
{"smiles": "Cc1ccc(Nc2ncc3ccn(-c4ccc(C(=O)N5CCOCC5)c(F)c4)c3n2)cc1", "note": "[Example 324, [2-Fluoro-4-(2-p-tolylamino-pyrrolo[2,3-d]pyrimidin-7-yl)-phenyl]-morpholin-4-yl-methanone]", "IC50": 26}
{"smiles": "CCN1CCN(Cc2ccc(Nc3ncc4ccn(-c5ccc(S(C)(=O)=O)cc5)c4n3)nc2)CC1", "note": "[Example 317, [5-(4-Ethyl-piperazin-1-ylmethyl)-pyridin-2-yl]-[7-(4-methanesulfonyl-phenyl)-7H-pyrrolo[2,3-d]pyrimidin-2-yl]-amine]", "IC50": 940}
{"smiles": "COc1ccc(Nc2ncc3ccn(-c4ccc(S(C)(=O)=O)cc4)c3n2)c(OC)c1", "note": "[Example 22, (2,4-Dimethoxy-phenyl)-[7-(4-methanesulfonyl-phenyl)-7H-pyrrolo[2,3-d]pyrimidin-2-yl]-amine]", "IC50": 170}
{"smiles": "CCN1CCCC1CNC(=O)c1ccc(-n2ccc3cnc(Nc4ccc(F)cc4)nc32)cc1", "note": "(centres unmarked) [Example 63, N-(1-Ethyl-pyrrolidin-2-ylmethyl)-4-[2-(4-fluoro-phenylamino)-pyrrolo[2,3-d]pyrimidin-7-yl]-benzamide]", "IC50": 73}
{"smiles": "Cc1cc(C#N)ccc1-n1ccc2cnc(Nc3ccc(N4CCN(C)CC4)nc3)nc21", "note": "[Example 439, 3-Methyl-4-{2-[6-(4-methyl-piperazin-1-yl)-pyridin-3-ylamino]-pyrrolo[2,3-d]pyrimidin-7-yl}-benzonitrile]", "IC50": 19}
{"smiles": "COc1ccc(Nc2ncc3ccn(-c4ccc(S(C)(=O)=O)cc4)c3n2)cc1OC", "note": "[Example 5, (3,4-Dimethoxy-phenyl)-[7-(4-methanesulfonyl-phenyl)-7H-pyrrolo[2,3-d]pyrimidin-2-yl]-amine]", "IC50": "< 3"}
{"smiles": "COc1cc(Nc2ncc3ccn(-c4ccc(S(C)(=O)=O)cc4)c3n2)cc(OC)c1", "note": "[Example 23, (3,5-Dimethoxy-phenyl)-[7-(4-methanesulfonyl-phenyl)-7H-pyrrolo[2,3-d]pyrimidin-2-yl]-amine]", "IC50": 3.6}
{"smiles": "CC(=O)N1CCN(Cc2ccc(Nc3ncc4ccn(-c5cc(F)c(C(=O)N6CCOCC6)c(F)c5)c4n3)cc2)CC1", "note": "[Example 323, 1-[4-(4-{7-[3,5-Difluoro-4-(morpholine-4-carbonyl)-phenyl]-7H-pyrrolo[2,3-d]pyrimidin-2-ylamino}-benzyl)-piperazin-1-yl]-ethanone]", "IC50": 3.2}
{"smiles": "CCc1ccc(-n2ccc3cnc(Nc4ccc(N5CCN(C)CC5)nc4)nc32)cc1", "note": "[Example 438, [7-(4-Ethyl-phenyl)-7H-pyrrolo[2,3-d]pyrimidin-2-yl]-[6-(4-methyl-piperazin-1-yl)-pyridin-3-yl]-amine]", "IC50": "≤ 3"}
{"smiles": "Fc1cc(-n2ccc3cnc(Nc4ccccn4)nc32)cc(F)c1CN1CCOCC1", "note": "[Example 209, [7-(3,5-Difluoro-4-morpholin-4-ylmethyl-phenyl)-7H-pyrrolo[2,3-d]pyrimidin-2-yl]-pyridin-2-yl-amine]", "IC50": 125}
{"smiles": "CN1CCN(c2ccc(Nc3ncc4ccn(-c5cc(F)c(CO)c(F)c5)c4n3)cn2)CC1", "note": "[Example 280, (2,6-Difluoro-4-{2-[6-(4-methyl-piperazin-1-yl)-pyridin-3-ylamino]-pyrrolo[2,3-d]pyrimidin-7-yl}-phenyl)-methanol]", "IC50": 3.5}
{"smiles": "CN1CCN(c2ccc(Nc3ncc4ccn(-c5ccc(S(C)(=O)=O)cc5)c4n3)cc2)CC1", "note": "[Example 18, [7-(4-Methanesulfonyl-phenyl)-7H-pyrrolo[2,3-d]pyrimidin-2-yl]-[4-(4-methyl-piperazin-1-yl)-phenyl]-amine]", "IC50": "< 3"}
{"smiles": "Cc1cc(Nc2ncc3ccn(-c4cc(F)c(CN5CCOCC5)c(F)c4)c3n2)ccc1CN1C[C@@H](C)N[C@@H](C)C1", "note": "[Example 461, [7-(3,5-Difluoro-4-morpholin-4-ylmethyl-phenyl)-7H-pyrrolo[2,3-d]pyrimidin-2-yl]-[4-(cis-3,5-dimethyl-piperazin-1-ylmethyl)-3-methyl-phenyl]-amine]", "IC50": "≤ 3"}
{"smiles": "O=C(c1c(F)cc(-n2ccc3cnc(Nc4ccc(CN5CCOCC5)cc4)nc32)cc1F)N1CCOCC1", "note": "[Example 206, {2,6-Difluoro-4-[2-(4-morpholin-4-ylmethyl-phenylamino)-pyrrolo[2,3-d]pyrimidin-7-yl]-phenyl}-morpholin-4-yl-methanone]", "IC50": "< 3"}
{"smiles": "OC1CCN(Cc2cc(Nc3ncc4ccn(-c5cc(F)c(CN6CCOCC6)c(F)c5)c4n3)ccn2)C1", "note": "(racemic) [Example 416, 1-{4-[7-(3,5-Difluoro-4-morpholin-4-ylmethyl-phenyl)-7H-pyrrolo[2,3-d]pyrimidin-2-ylamino]-pyridin-2-ylmethyl}-pyrrolidin-3-ol]", "IC50": "≤ 3"}
{"smiles": "CN1CCN(c2cccc(Nc3ncc4ccn(-c5cc(F)c(C(=O)N6CCOCC6)c(F)c5)c4n3)c2)CC1", "note": "[Example 207, (2,6-Difluoro-4-{2-[3-(4-methyl-piperazin-1-yl)-phenylamino]-pyrrolo[2,3-d]pyrimidin-7-yl}-phenyl)-morpholin-4-yl-methanone]", "IC50": "< 3"}
{"smiles": "CCN1CCN(Cc2ccc(Nc3ncc4ccn(-c5cc(F)c(CN6CCOCC6)c(F)c5)c4n3)nc2)CC1", "note": "[Example 316, [7-(3,5-Difluoro-4-morpholin-4-ylmethyl-phenyl)-7H-pyrrolo[2,3-d]pyrimidin-2-yl]-[5-(4-ethyl-piperazin-1-ylmethyl)-pyridin-2-yl]-amine]", "IC50": 73}
{"smiles": "CS(=O)(=O)c1ccc(-n2ccc3cnc(Nc4ccc(CN5CCNCC5)cc4)nc32)cc1", "note": "[Example 52, [7-(4-Methanesulfonyl-phenyl)-7H-pyrrolo[2,3-d]pyrimidin-2-yl]-(4-piperazin-1-ylmethyl-phenyl)-amine]", "IC50": "< 3"}
{"smiles": "CN(C)c1ccc(Nc2ncc3ccn(-c4ccc(S(C)(=O)=O)cc4)c3n2)cc1", "note": "[Example 21, N-[7-(4-Methanesulfonyl-phenyl)-7H-pyrrolo[2,3-d]pyrimidin-2-yl]-N′,N′-dimethyl-benzene-1,4-diamine]", "IC50": 23}
{"smiles": "Cc1cc(Nc2ncc3ccn(-c4cc(F)c(CN5CCOCC5)c(F)c4)c3n2)ccc1CN1CCNCC1", "note": "[Example 460, [7-(3,5-Difluoro-4-morpholin-4-ylmethyl-phenyl)-7H-pyrrolo[2,3-d]pyrimidin-2-yl]-(3-methyl-4-piperazin-1-ylmethyl-phenyl)-amine]", "IC50": "≤ 3"}
{"smiles": "CC(=O)N1CCN(Cc2ccc(Nc3ncc4ccn(-c5ccc(S(C)(=O)=O)cc5)c4n3)cc2)CC1", "note": "[Example 319, 1-(4-{4-[7-(4-Methanesulfonyl-phenyl)-7H-pyrrolo[2,3-d]pyrimidin-2-ylamino]-benzyl}-piperazin-1-yl)-ethanone]", "IC50": "< 3"}
{"smiles": "Cc1ccc(Nc2ncc3ccn(-c4cc(F)c(CN5CCNC(=O)C5)c(F)c4)c3n2)cc1CN1CCOCC1", "note": "[Example 344, 4-{2,6-Difluoro-4-[2-(4-methyl-3-morpholin-4-ylmethyl-phenylamino)-pyrrolo[2,3-d]pyrimidin-7-yl]-benzyl}-piperazin-2-one]", "IC50": "≤ 3"}
{"smiles": "CS(=O)(=O)c1ccc(-n2ccc3cnc(Nc4ccc(C(=O)NCCO)cc4)nc32)cc1", "note": "[Example 51, N-(2-Hydroxy-ethyl)-4-[7-(4-methanesulfonyl-phenyl)-7H-pyrrolo[2,3-d]pyrimidin-2-ylamino]-benzamide]", "IC50": "< 3"}
{"smiles": "CS(=O)(=O)c1ccc(-n2ccc3cnc(Nc4ccccc4)nc32)cc1", "note": "[Example 19, [7-(4-Methanesulfonyl-phenyl)-7H-pyrrolo[2,3-d]pyrimidin-2-yl]-phenyl-amine]", "IC50": 6.9}
{"smiles": "N#Cc1ccc(Nc2ncc3ccn(-c4ccc(C(=O)N5CCOCC5)c(F)c4)c3n2)cn1", "note": "[Example 228, 5-{7-[3-Fluoro-4-(morpholine-4-carbonyl)-phenyl]-7H-pyrrolo[2,3-d]pyrimidin-2-ylamino}-pyridine-2-carbonitrile]", "IC50": 56.5}
{"smiles": "CN1CCN(CCOc2cccc(Nc3ncc4ccn(-c5ccc(S(C)(=O)=O)cc5)c4n3)c2)CC1", "note": "[Example 32, [7-(4-Methanesulfonyl-phenyl)-7H-pyrrolo[2,3-d]pyrimidin-2-yl]-{3-[2-(4-methyl-piperazin-1-yl)-ethoxy]-phenyl}-amine]", "IC50": 5.4}
{"smiles": "Cc1ccc(Nc2ncc3ccn(-c4ccc(C(=O)N5CCOCC5)c(F)c4)c3n2)cc1CN1CCNC2(CC2)C1", "note": "[Example 374, (4-{2-[3-(4,7-Diaza-spiro[2.5]oct-7-ylmethyl)-4-methyl-phenylamino]-pyrrolo[2,3-d]pyrimidin-7-yl}-2-fluoro-phenyl)-morpholin-4-yl-methanone]", "IC50": 9.9}
{"smiles": "Cc1ccc(Nc2ncc3ccn(-c4ccc(S(N)(=O)=O)cc4)c3n2)cc1CN1CCN(C)CC1", "note": "[Example 368, 4-{2-[4-Methyl-3-(4-methyl-piperazin-1-ylmethyl)-phenylamino]-pyrrolo[2,3-d]pyrimidin-7-yl}-benzenesulfonamide]", "IC50": 3.2}
{"smiles": "O=C(c1ccc(-n2ccc3cnc(Nc4ccc(CN5CCN(C6CC6)CC5)cc4)nc32)cc1F)N1CCOCC1", "note": "[Example 330, (4-{2-[4-(4-Cyclopropyl-piperazin-1-ylmethyl)-phenylamino]-pyrrolo[2,3-d]pyrimidin-7-yl}-2-fluoro-phenyl)-morpholin-4-yl-methanone]", "IC50": 14}
{"smiles": "Fc1cc(-n2ccc3cnc(Nc4cccc(CN5CCOCC5)c4)nc32)cc(F)c1CN1CCOCC1", "note": "[Example 198, [7-(3,5-Difluoro-4-morpholin-4-ylmethyl-phenyl)-7H-pyrrolo[2,3-d]pyrimidin-2-yl]-(3-morpholin-4-ylmethyl-phenyl)-amine]", "IC50": "< 3"}
{"smiles": "CS(=O)(=O)c1ccc(-n2ccc3cnc(Nc4ccc(N5CCNCC5)cc4)nc32)cc1", "note": "[Example 37, [7-(4-Methanesulfonyl-phenyl)-7H-pyrrolo[2,3-d]pyrimidin-2-yl]-(4-piperazin-1-yl-phenyl)-amine]", "IC50": "< 3"}
{"smiles": "CN1CCN(Cc2ccc(Nc3ncc4ccn(-c5cc(F)c(C(=O)N6CCOCC6)c(F)c5)c4n3)cc2)CC1", "note": "[Example 205, (2,6-Difluoro-4-{2-[4-(4-methyl-piperazin-1-ylmethyl)-phenylamino]-pyrrolo[2,3-d]pyrimidin-7-yl}-phenyl)-morpholin-4-yl-methanone]", "IC50": 5}
